Measurements as given in ChEMBL document CHEMBL3822364, “Synthesis, characterization and antimicrobial activity of novel Schiff base tethered boronate esters of 1,2-O-isopropylidene-α-d-xylofuranose” (2016).
≈ marks a conversion by molar mass, not a printed value.

Columns and labels:
Aspergillus fumigatus [1] = experiment: Antifungal activity against Aspergillus fumigatus MTCC 343 assessed as zone of inhibition at 100 ug/well measured after 48 hrs by agar well diffusion method; assay type: functional; settings: MTCC 343, 48 h, read-out: DIZ
Salmonella paratyphi [2] = experiment: Antibacterial activity against Salmonella paratyphi assessed as zone of inhibition at 100 ug/well measured after 24 hrs by agar well diffusion method; assay type: functional, Salmonella enterica subsp. enterica serovar Paratyphi A; settings: Salmonella enterica, read-out: DIZ
Klebsiella pneumoniae [3] = experiment: Antibacterial activity against Klebsiella pneumoniae MTCC 3384 assessed as zone of inhibition at 100 ug/well measured after 24 hrs by agar well diffusion method; assay type: functional; settings: MTCC 3384, 24 h, read-out: DIZ
Klebsiella pneumoniae [4] = experiment: Antibacterial activity against Klebsiella pneumoniae MTCC 3384 measured after 24 hrs by NCCL protocol based broth dilution method; assay type: functional; settings: MTCC 3384, 24 h
Aspergillus fumigatus [5] = experiment: Antifungal activity against Aspergillus fumigatus MTCC 343 measured after 48 hrs by NCCL protocol based broth dilution method; assay type: functional; settings: MTCC 343, 48 h
Micrococcus luteus [6] = experiment: Antibacterial activity against Micrococcus luteus MTCC 106 measured after 24 hrs by NCCL protocol based broth dilution method; assay type: functional; settings: MTCC 106, 24 h
Staphylococcus aureus [7] = experiment: Antibacterial activity against Staphylococcus aureus MTCC 3160 measured after 24 hrs by NCCL protocol based broth dilution method; assay type: functional; settings: MTCC 3160, 24 h
Streptococcus mutans [8] = experiment: Antibacterial activity against Streptococcus mutans MTCC 497 assessed as zone of inhibition at 100 ug/well measured after 24 hrs by agar well diffusion method; assay type: functional; settings: MTCC 497, 24 h, read-out: DIZ
Candida albicans [9] = experiment: Antifungal activity against Candida albicans MTCC 3017 measured after 48 hrs by NCCL protocol based broth dilution method; assay type: functional; settings: MTCC 3017, 48 h
Salmonella typhi [10] = experiment: Antibacterial activity against Salmonella typhi assessed as zone of inhibition at 100 ug/well measured after 24 hrs by agar well diffusion method; assay type: functional, Salmonella enterica subsp. enterica serovar Typhi; settings: Salmonella enterica, read-out: DIZ
Candida albicans [11] = experiment: Antifungal activity against Candida albicans MTCC 3017 assessed as zone of inhibition at 100 ug/well measured after 48 hrs by agar well diffusion method; assay type: functional; settings: MTCC 3017, 48 h, read-out: DIZ
Salmonella paratyphi [12] = experiment: Antibacterial activity against Salmonella paratyphi measured after 24 hrs by NCCL protocol based broth dilution method; assay type: functional, Salmonella enterica subsp. enterica serovar Paratyphi A; settings: Salmonella enterica
Salmonella typhi [13] = experiment: Antibacterial activity against Salmonella typhi measured after 24 hrs by NCCL protocol based broth dilution method; assay type: functional, Salmonella enterica subsp. enterica serovar Typhi; settings: Salmonella enterica
Staphylococcus aureus [14] = experiment: Antibacterial activity against Staphylococcus aureus MTCC 3160 assessed as zone of inhibition at 100 ug/well measured after 24 hrs by agar well diffusion method; assay type: functional; settings: MTCC 3160, 24 h, read-out: DIZ
Streptococcus mutans [15] = experiment: Antibacterial activity against Streptococcus mutans MTCC 497 measured after 24 hrs by NCCL protocol based broth dilution method; assay type: functional; settings: MTCC 497, 24 h
Micrococcus luteus [16] = experiment: Antibacterial activity against Micrococcus luteus MTCC 106 assessed as zone of inhibition at 100 ug/well measured after 24 hrs by agar well diffusion method; assay type: functional; settings: MTCC 106, 24 h, read-out: DIZ

| SMILES | zone of inhibition at 100 µg/disc (Aspergillus fumigatus [1]) [mm] | zone of inhibition at 100 µg/disc (Salmonella paratyphi [2]) [mm] | zone of inhibition at 100 µg/disc (Klebsiella pneumoniae [3]) [mm] | MIC (Klebsiella pneumoniae [4]) [µg/mL] | MIC (Aspergillus fumigatus [5]) [µg/mL] | MIC (Micrococcus luteus [6]) [µg/mL] | MIC (Staphylococcus aureus [7]) [µg/mL] | zone of inhibition at 100 µg/disc (Streptococcus mutans [8]) [mm] | MIC (Candida albicans [9]) [µg/mL] | zone of inhibition at 100 µg/disc (Salmonella typhi [10]) [mm] | zone of inhibition at 100 µg/disc (Candida albicans [11]) [mm] | MIC (Salmonella paratyphi [12]) [µg/mL] | MIC (Salmonella typhi [13]) [µg/mL] | zone of inhibition at 100 µg/disc (Staphylococcus aureus [14]) [mm] | MIC (Streptococcus mutans [15]) [µg/mL] | zone of inhibition at 100 µg/disc (Micrococcus luteus [16]) [mm] |
| --- | --- | --- | --- | --- | --- | --- | --- | --- | --- | --- | --- | --- | --- | --- | --- | --- |
| O=[N+]([O-])c1ccc(O)c(/C=N/c2cccc(B(O)O)c2)c1 | 0 | 0 | 0 | 500 (≈ 1750 µM) | 500 (≈ 1750 µM) | 250 (≈ 874 µM) | 500 (≈ 1750 µM) | 9 | 500 (≈ 1750 µM) | 11 | 0 | 500 (≈ 1750 µM) | 500 (≈ 1750 µM) | 8 | 125 (≈ 437 µM) | 0 |
| CC1(C)O[C@H]2O[C@@H]3COB(c4cccc(/C=N/c5ccc(Br)cc5)c4)O[C@@H]3[C@H]2O1 | 0 | 21 | 18 | 62.5 (≈ 136 µM) | 250 (≈ 546 µM) | 125 (≈ 273 µM) | 250 (≈ 546 µM) | 20 | 125 (≈ 273 µM) | 22 | 16 | 62.5 (≈ 136 µM) | 31.2 (≈ 68.2 µM) | 13 | 62.5 (≈ 136 µM) | 14 |
| COc1ccc(/N=C/c2cccc(B3OC[C@H]4O[C@@H]5OC(C)(C)O[C@@H]5[C@H]4O3)c2)cc1 | 0 | 21 | 18 | 62.5 (≈ 153 µM) | 500 (≈ 1220 µM) | 250 (≈ 611 µM) | 500 (≈ 1220 µM) | 17 | 125 (≈ 305 µM) | 25 | 16 | 62.5 (≈ 153 µM) | 31.2 (≈ 76.4 µM) | 0 | 125 (≈ 305 µM) | 12 |
| CC1(C)O[C@H]2O[C@@H]3COB(c4ccccc4F)O[C@@H]3[C@H]2O1 | 9 | 9 | 12 | 250 (≈ 850 µM) | 500 (≈ 1700 µM) | 250 (≈ 850 µM) | 125 (≈ 425 µM) | 12 | 500 (≈ 1700 µM) | 11 | 11 | 125 (≈ 425 µM) | 250 (≈ 850 µM) | 11 | 125 (≈ 425 µM) | 8 |
| CC1(C)O[C@H]2O[C@@H]3COB(c4ccc(/C=N/c5ccc(Cl)cc5)cc4)O[C@@H]3[C@H]2O1 | 0 | 13 | 24 | 62.5 (≈ 151 µM) | 500 (≈ 1210 µM) | 125 (≈ 302 µM) | 125 (≈ 302 µM) | 22 | 250 (≈ 604 µM) | 22 | 11 | 125 (≈ 302 µM) | 62.5 (≈ 151 µM) | 16 | 62.5 (≈ 151 µM) | 13 |
| OB(O)c1ccc(/C=N/c2ccc(F)cc2)cc1 | 0 | 0 | 0 | 500 (≈ 2060 µM) | 500 (≈ 2060 µM) | 500 (≈ 2060 µM) | 500 (≈ 2060 µM) | 11 | 500 (≈ 2060 µM) | 9 | 0 | 500 (≈ 2060 µM) | 500 (≈ 2060 µM) | 9 | 250 (≈ 1030 µM) | 0 |
